The values below come from ChEMBL document CHEMBL1909046, “DrugMatrix in vitro pharmacology data”.

Prostaglandin G/H synthase 1, sequence (P23219 whole entry): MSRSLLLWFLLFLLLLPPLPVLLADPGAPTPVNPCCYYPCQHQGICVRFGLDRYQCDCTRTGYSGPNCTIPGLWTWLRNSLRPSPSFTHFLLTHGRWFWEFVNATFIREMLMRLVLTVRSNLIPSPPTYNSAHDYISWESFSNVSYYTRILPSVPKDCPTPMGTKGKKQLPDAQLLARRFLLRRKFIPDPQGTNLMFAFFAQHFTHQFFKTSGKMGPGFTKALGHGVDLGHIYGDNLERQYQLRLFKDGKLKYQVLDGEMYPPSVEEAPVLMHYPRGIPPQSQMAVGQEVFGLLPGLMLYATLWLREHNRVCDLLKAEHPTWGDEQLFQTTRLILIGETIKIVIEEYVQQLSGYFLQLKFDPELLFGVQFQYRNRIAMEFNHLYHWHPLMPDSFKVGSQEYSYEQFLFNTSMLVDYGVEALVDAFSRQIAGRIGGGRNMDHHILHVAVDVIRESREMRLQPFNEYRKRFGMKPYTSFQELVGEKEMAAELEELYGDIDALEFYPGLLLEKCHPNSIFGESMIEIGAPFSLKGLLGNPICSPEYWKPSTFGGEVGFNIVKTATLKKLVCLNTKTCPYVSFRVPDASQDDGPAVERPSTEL

The first assay addresses T1, Alpha-1B adrenergic receptor (Rattus norvegicus, UniProt P15823).
T1 sequence (P15823 whole entry): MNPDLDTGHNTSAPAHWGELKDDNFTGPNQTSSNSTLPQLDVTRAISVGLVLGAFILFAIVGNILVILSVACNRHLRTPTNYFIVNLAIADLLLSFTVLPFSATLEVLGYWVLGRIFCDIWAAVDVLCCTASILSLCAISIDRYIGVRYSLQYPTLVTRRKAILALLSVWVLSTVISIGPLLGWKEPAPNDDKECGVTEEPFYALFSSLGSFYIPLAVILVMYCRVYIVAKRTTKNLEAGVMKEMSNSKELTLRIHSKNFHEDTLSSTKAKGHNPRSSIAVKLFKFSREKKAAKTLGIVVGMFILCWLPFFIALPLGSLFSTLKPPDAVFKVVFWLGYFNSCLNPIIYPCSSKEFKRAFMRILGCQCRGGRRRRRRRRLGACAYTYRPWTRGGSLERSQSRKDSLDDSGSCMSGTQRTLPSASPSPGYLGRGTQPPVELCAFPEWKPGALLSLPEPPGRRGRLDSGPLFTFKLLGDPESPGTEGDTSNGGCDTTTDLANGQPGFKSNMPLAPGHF
Put plainly: DRUGMATRIX: Alpha-1B adrenergic receptor radioligand binding (ligand: prazosin). The assay is classed as cell membranes, Wistar, Liver, Membrane. The conditions noted are these: Not Active = under 50% inhibition at 10 µM.
As for `COC(=O)C1=C(C)NC(C)=C(C(=O)OCC(C)C)C1c1ccccc1[N+](=O)[O-]` (stereo unspecified) [NISOLDIPINE], the IC50 result was “Not Active”.
Take `CCOC(=O)C1=C(C)NC(C)=C(C(=O)OC)C1c1cccc([N+](=O)[O-])c1` (stereo unspecified) [NITRENDIPINE]: the IC50 entry is given as “Not Active”.
As to `C#C[C@]1(OC(C)=O)CC[C@H]2[C@@H]3CCC4=CC(=O)CC[C@@H]4[C@H]3CC[C@@]21C` [NORETHINDRONE ACETATE], the IC50 entry is listed as “Not Active”.
As for `COc1ccc2[nH]c([S+]([O-])Cc3ncc(C)c(OC)c3C)nc2c1` (stereo unspecified) [OMEPRAZOLE], the IC50 result is given as “Not Active”.

For another assay, the target named is T2, Thromboxane-A synthase (Homo sapiens, UniProt P24557).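 Note: enzyme inhibition assay with PGH2 supplied as substrate; in other assays of this panel Not Active means under 50% inhibition at 10 µM.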
T2 sequence (P24557 whole entry): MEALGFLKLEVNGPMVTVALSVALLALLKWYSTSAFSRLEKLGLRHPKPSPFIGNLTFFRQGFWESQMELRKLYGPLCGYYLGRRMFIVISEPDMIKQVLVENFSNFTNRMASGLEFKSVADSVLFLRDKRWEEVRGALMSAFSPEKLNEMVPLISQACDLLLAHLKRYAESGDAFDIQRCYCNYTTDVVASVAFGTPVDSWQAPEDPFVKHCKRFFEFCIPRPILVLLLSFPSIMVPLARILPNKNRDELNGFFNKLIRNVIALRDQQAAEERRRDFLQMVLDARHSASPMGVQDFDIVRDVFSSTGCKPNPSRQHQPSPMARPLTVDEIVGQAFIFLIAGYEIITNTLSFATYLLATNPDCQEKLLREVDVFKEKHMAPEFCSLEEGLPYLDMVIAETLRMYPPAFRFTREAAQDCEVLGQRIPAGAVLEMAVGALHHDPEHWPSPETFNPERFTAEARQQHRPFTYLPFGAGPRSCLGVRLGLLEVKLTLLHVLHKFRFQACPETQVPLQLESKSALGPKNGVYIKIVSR
Put plainly: biochemical. Type of assay: tissue-based, Platelet. The conditions noted are these: platelet.
Consider `COC(=O)C1=C(C)NC(C)=C(C(=O)OCC(C)C)C1c1ccccc1[N+](=O)[O-]` (stereo unspecified) [NISOLDIPINE], for which the IC50 entry is “Not Active”.
Take `CCOC(=O)C1=C(C)NC(C)=C(C(=O)OC)C1c1cccc([N+](=O)[O-])c1` (stereo unspecified) [NITRENDIPINE]: the IC50 entry was “Not Active”.
With `C#C[C@]1(OC(C)=O)CC[C@H]2[C@@H]3CCC4=CC(=O)CC[C@@H]4[C@H]3CC[C@@]21C` [NORETHINDRONE ACETATE], the IC50 entry is “Not Active”.
As to `COc1ccc2[nH]c([S+]([O-])Cc3ncc(C)c(OC)c3C)nc2c1` (stereo unspecified) [OMEPRAZOLE], the IC50 entry was “Not Active”.

A further assay deals with T3, C-X-C chemokine receptor type 1 (Homo sapiens, UniProt P25024).
T3 sequence (P25024 whole entry): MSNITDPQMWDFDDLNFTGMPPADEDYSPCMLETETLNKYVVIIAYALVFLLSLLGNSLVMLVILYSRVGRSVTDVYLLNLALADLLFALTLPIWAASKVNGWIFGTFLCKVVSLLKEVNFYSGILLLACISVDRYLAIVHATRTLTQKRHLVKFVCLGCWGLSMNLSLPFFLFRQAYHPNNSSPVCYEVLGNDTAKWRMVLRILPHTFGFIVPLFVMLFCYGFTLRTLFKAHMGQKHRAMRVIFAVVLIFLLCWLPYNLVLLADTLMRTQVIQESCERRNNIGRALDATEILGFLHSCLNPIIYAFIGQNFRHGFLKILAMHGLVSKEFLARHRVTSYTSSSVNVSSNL
Test: not given
Conditions: not given
Take `COC(=O)C1=C(C)NC(C)=C(C(=O)OCC(C)C)C1c1ccccc1[N+](=O)[O-]` (stereo unspecified) [NISOLDIPINE]: the IC50 result is given as “Not Active”.
Take `CCOC(=O)C1=C(C)NC(C)=C(C(=O)OC)C1c1cccc([N+](=O)[O-])c1` (stereo unspecified) [NITRENDIPINE]: the IC50 result is listed as “Not Active”.
On to `C#C[C@]1(OC(C)=O)CC[C@H]2[C@@H]3CCC4=CC(=O)CC[C@@H]4[C@H]3CC[C@@]21C` [NORETHINDRONE ACETATE], for which the IC50 result is recorded as “Not Active”.
Turning to `COc1ccc2[nH]c([S+]([O-])Cc3ncc(C)c(OC)c3C)nc2c1` (stereo unspecified) [OMEPRAZOLE], the IC50 entry was “Not Active”.

A further assay addresses Prostaglandin G/H synthase 1 (Homo sapiens, UniProt P23219). Put plainly: biochemical. Type of assay: tissue-based, Platelet. The conditions noted are these: platelet.
Regarding `COC(=O)C1=C(C)NC(C)=C(C(=O)OCC(C)C)C1c1ccccc1[N+](=O)[O-]` (stereo unspecified) [NISOLDIPINE], the IC50 result is reported as “Not Active”.
On to `CCOC(=O)C1=C(C)NC(C)=C(C(=O)OC)C1c1cccc([N+](=O)[O-])c1` (stereo unspecified) [NITRENDIPINE], for which the IC50 entry is “Not Active”.
In the case of `C#C[C@]1(OC(C)=O)CC[C@H]2[C@@H]3CCC4=CC(=O)CC[C@@H]4[C@H]3CC[C@@]21C` [NORETHINDRONE ACETATE], the IC50 result is on record as “Not Active”.
Take `COc1ccc2[nH]c([S+]([O-])Cc3ncc(C)c(OC)c3C)nc2c1` (stereo unspecified) [OMEPRAZOLE]: the IC50 entry is “Not Active”.

For another assay, the target named is Glycine receptor (Rattus norvegicus, UniProt P22771+P24524+P07727+P20781). Note: in other assays of this panel Not Active means under 50% inhibition at 10 µM.
Test: not given
Conditions: not given
Type of assay: cell membranes, Wistar, Spinal cord, Membrane.
For `COC(=O)C1=C(C)NC(C)=C(C(=O)OCC(C)C)C1c1ccccc1[N+](=O)[O-]` (stereo unspecified) [NISOLDIPINE], the IC50 result is given as “Not Active”.
As to `CCOC(=O)C1=C(C)NC(C)=C(C(=O)OC)C1c1cccc([N+](=O)[O-])c1` (stereo unspecified) [NITRENDIPINE], the IC50 result is listed as “Not Active”.
Turning to `C#C[C@]1(OC(C)=O)CC[C@H]2[C@@H]3CCC4=CC(=O)CC[C@@H]4[C@H]3CC[C@@]21C` [NORETHINDRONE ACETATE], the IC50 result was “Not Active”.
As to `COc1ccc2[nH]c([S+]([O-])Cc3ncc(C)c(OC)c3C)nc2c1` (stereo unspecified) [OMEPRAZOLE], the IC50 entry is “Not Active”.

In the next assay the target is T4, Leukotriene C4 synthase (Cavia porcellus, UniProt A6XA80).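 Note: enzyme inhibition assay of leukotriene C4 synthase, using LTA4 as the substrate; in other assays of this panel Not Active means under 50% inhibition at 10 µM.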
T4 sequence (A6XA80 whole entry): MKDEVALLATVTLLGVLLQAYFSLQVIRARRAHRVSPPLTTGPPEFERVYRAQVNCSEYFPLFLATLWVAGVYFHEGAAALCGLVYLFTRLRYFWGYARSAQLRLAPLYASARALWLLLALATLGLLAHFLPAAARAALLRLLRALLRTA
Test: not given
Conditions: not given
The assay is classed as tissue-based, Lung.
As to `COC(=O)C1=C(C)NC(C)=C(C(=O)OCC(C)C)C1c1ccccc1[N+](=O)[O-]` (stereo unspecified) [NISOLDIPINE], the IC50 entry was “Not Active”.
Same read-out and setting: to `CCOC(=O)C1=C(C)NC(C)=C(C(=O)OC)C1c1cccc([N+](=O)[O-])c1` (stereo unspecified) [NITRENDIPINE] belongs “Not Active”; to `C#C[C@]1(OC(C)=O)CC[C@H]2[C@@H]3CCC4=CC(=O)CC[C@@H]4[C@H]3CC[C@@]21C` [NORETHINDRONE ACETATE], “Not Active”.
Same read-out and setting: with `COc1ccc2[nH]c([S+]([O-])Cc3ncc(C)c(OC)c3C)nc2c1` (stereo unspecified) [OMEPRAZOLE] the entry was “Not Active”.

Another assay deals with T5, Cathepsin G (Homo sapiens, UniProt P08311).
T5 sequence (P08311 whole entry): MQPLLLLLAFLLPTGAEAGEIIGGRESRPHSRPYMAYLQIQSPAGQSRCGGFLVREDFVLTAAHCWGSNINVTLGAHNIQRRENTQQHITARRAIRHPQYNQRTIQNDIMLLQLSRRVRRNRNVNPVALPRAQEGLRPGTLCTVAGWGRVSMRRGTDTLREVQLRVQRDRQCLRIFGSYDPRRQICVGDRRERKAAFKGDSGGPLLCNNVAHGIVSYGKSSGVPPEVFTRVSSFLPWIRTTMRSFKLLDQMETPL
Test: not given
Type of assay: tissue-based. The conditions noted are these: neutrophil.
Turning to `COC(=O)C1=C(C)NC(C)=C(C(=O)OCC(C)C)C1c1ccccc1[N+](=O)[O-]` (stereo unspecified) [NISOLDIPINE], the IC50 entry is reported as “Not Active”.
For `CCOC(=O)C1=C(C)NC(C)=C(C(=O)OC)C1c1cccc([N+](=O)[O-])c1` (stereo unspecified) [NITRENDIPINE], the IC50 result is reported as “Not Active”.
As for `C#C[C@]1(OC(C)=O)CC[C@H]2[C@@H]3CCC4=CC(=O)CC[C@@H]4[C@H]3CC[C@@]21C` [NORETHINDRONE ACETATE], the IC50 result was “Not Active”.
With `COc1ccc2[nH]c([S+]([O-])Cc3ncc(C)c(OC)c3C)nc2c1` (stereo unspecified) [OMEPRAZOLE], the IC50 result is on record as “Not Active”.

The target of another assay is T6, Neutrophil elastase (Homo sapiens, UniProt P08246).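 Note: inhibition of neutrophil elastase enzyme activity, measured with a p-nitroanilide-linked peptide substrate; in other assays of this panel Not Active means under 50% inhibition at 10 µM.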
T6 sequence (P08246 whole entry): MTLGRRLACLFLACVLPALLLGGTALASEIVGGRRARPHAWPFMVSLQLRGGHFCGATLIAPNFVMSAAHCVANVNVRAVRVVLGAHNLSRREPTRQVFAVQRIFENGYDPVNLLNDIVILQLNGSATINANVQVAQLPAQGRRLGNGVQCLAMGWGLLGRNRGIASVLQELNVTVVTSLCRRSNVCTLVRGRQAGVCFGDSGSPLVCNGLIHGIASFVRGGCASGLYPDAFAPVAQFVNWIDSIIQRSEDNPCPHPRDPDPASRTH
Test: not given
Type of assay: tissue-based.
Conditions: not given
In the case of `COC(=O)C1=C(C)NC(C)=C(C(=O)OCC(C)C)C1c1ccccc1[N+](=O)[O-]` (stereo unspecified) [NISOLDIPINE], the IC50 entry is “Not Active”.
On the same count and under the same terms, with `CCOC(=O)C1=C(C)NC(C)=C(C(=O)OC)C1c1cccc([N+](=O)[O-])c1` (stereo unspecified) [NITRENDIPINE] the entry was “Not Active”.
In the case of `C#C[C@]1(OC(C)=O)CC[C@H]2[C@@H]3CCC4=CC(=O)CC[C@@H]4[C@H]3CC[C@@]21C` [NORETHINDRONE ACETATE], the IC50 result was “Not Active”.
`COc1ccc2[nH]c([S+]([O-])Cc3ncc(C)c(OC)c3C)nc2c1` (stereo unspecified) [OMEPRAZOLE]: the IC50 entry is “Not Active”.

The next assay addresses T7, Interstitial collagenase (Homo sapiens, UniProt P03956).
T7 sequence (P03956 whole entry): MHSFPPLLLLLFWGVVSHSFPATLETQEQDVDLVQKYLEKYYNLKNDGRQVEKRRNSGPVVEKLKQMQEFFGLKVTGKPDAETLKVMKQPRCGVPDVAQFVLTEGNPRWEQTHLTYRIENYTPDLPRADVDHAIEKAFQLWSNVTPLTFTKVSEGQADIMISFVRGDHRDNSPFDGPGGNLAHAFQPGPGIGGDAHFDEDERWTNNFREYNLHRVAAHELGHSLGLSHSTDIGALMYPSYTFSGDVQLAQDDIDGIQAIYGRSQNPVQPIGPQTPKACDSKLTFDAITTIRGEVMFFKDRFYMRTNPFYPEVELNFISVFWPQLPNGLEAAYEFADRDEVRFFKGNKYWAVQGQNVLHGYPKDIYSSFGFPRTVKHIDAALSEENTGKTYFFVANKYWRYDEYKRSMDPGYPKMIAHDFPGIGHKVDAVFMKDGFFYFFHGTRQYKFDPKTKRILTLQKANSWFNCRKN
Description: biochemical. The assay is classed as tissue-based, Rheumatoid synovial fibroblasts.
Conditions: not given
For the compound `COC(=O)C1=C(C)NC(C)=C(C(=O)OCC(C)C)C1c1ccccc1[N+](=O)[O-]` (stereo unspecified) [NISOLDIPINE], the IC50 entry is “Not Active”.
As for `CCOC(=O)C1=C(C)NC(C)=C(C(=O)OC)C1c1cccc([N+](=O)[O-])c1` (stereo unspecified) [NITRENDIPINE], the IC50 entry is given as “Not Active”.
Turning to `C#C[C@]1(OC(C)=O)CC[C@H]2[C@@H]3CCC4=CC(=O)CC[C@@H]4[C@H]3CC[C@@]21C` [NORETHINDRONE ACETATE], the IC50 entry is “Not Active”.
On to `COc1ccc2[nH]c([S+]([O-])Cc3ncc(C)c(OC)c3C)nc2c1` (stereo unspecified) [OMEPRAZOLE], for which the IC50 result is on record as “Not Active”.
